In PubChem BioAssay AID216 (DTP/NCI, 2004) one finds T/C data, which are given here for 13 molecules.

The structures appear in SMILES notation. Several values for one entry are separate records, joined by “and”; a condition that tells them apart may be missing. Equal values may be shown once. Inconclusive results and toxic doses are left out.

This test concerns BDF1 mice, P288 leukemia ip, survival T/C. As to the kind of experiment: NCI In Vivo Anticancer Drug Screen. Data for tumor model P288 Lymphocytic Leukemia (intraperitoneal) in B6D2F1 (BDF1) mice. The settings on record: endpoint: survival time, mean or median, higher = longer survival. The procedure:
The antitumor activity of compounds was measured in mice bearing transplantable tumors. Survival or tumor size were measured and the results are expressed as the measurement made in the treated group (T) divided by the measurement made in the vehicle treated control group (C). The tumor model used in this assay is P288 Lymphocytic Leukemia (intraperitoneal) in B6D2F1 (BDF1) mice

Where [1] appears, read: dose: 12.5 mg/kg/injection, schedule: Q01DX Z (ip), vehicle: carboxymethylcellulose (CMC).
[2] abbreviates: dose: 25.0 mg/kg/injection, schedule: Q01DX Z (ip), vehicle: carboxymethylcellulose (CMC).
[3] abbreviates: dose: 50.0 mg/kg/injection, schedule: Q01DX Z (ip), vehicle: carboxymethylcellulose (CMC).
The mark [4] stands for this setting: dose: 0.25 mg/kg/injection, schedule: Q01DX Z (ip), vehicle: carboxymethylcellulose (CMC).
Setting [5] is: dose: 0.5 mg/kg/injection, schedule: Q01DX Z (ip), vehicle: carboxymethylcellulose (CMC).
[6] abbreviates: dose: 1.0 mg/kg/injection, schedule: Q01DX Z (ip), vehicle: carboxymethylcellulose (CMC).
[7] abbreviates: dose: 2.0 mg/kg/injection, schedule: Q01DX Z (ip), vehicle: carboxymethylcellulose (CMC).
[8] abbreviates: dose: 50.0 mg/kg/injection, schedule: Q01DX010 (ip), vehicle: saline.
[9] abbreviates: dose: 100.0 mg/kg/injection, schedule: Q01DX010 (ip), vehicle: saline.
The mark [10] stands for this setting: dose: 200.0 mg/kg/injection, schedule: Q01DX010 (ip), vehicle: saline.
The mark [11] stands for this setting: dose: 25.0 mg/kg/injection, schedule: Q01DX010 (ip), vehicle: saline.

On to `N#CCSc1ncnc2nc[nH]c12`, for which the T/C is 97 % of control under setting [1]; 95 % of control under setting [2]; 94 % of control (dose: 30.0 mg/kg/injection, schedule: Q01DX010 (ip), vehicle: saline); 114 % of control and 95 % of control under setting [3]; 88 % of control (dose: 60.0 mg/kg/injection, schedule: Q01DX010 (ip), vehicle: saline); 100 % of control (dose: 120.0 mg/kg/injection, schedule: Q01DX010 (ip), vehicle: saline).
Turning to `Clc1ccc(C(c2ccccc2Cl)C(Cl)Cl)cc1` (centres undefined), the T/C by setting is: (dose: 25.0 mg/kg/injection, schedule: Q01DX Z (sc), vehicle: steriod suspending solution) 100 % of control; (dose: 50.0 mg/kg/injection, schedule: Q01DX Z (sc), vehicle: steriod suspending solution) 122 % of control; (dose: 100.0 mg/kg/injection, schedule: Q01DX Z (sc), vehicle: steriod suspending solution) 107 % of control; (dose: 200.0 mg/kg/injection, schedule: Q01DX Z (sc), vehicle: steriod suspending solution) 86 % of control and 100 % of control; (dose: 400.0 mg/kg/injection, schedule: Q01DX Z (sc), vehicle: steriod suspending solution) 101 % of control.
As to `Nc1nc(=S)c2[nH]cnc2[nH]1`, the T/C (dose: 0.12 mg/kg/injection, schedule: Q01DX Z (ip), vehicle: carboxymethylcellulose (CMC)) was 101 % of control; the T/C under setting [4] was 105 % of control and 109 % of control; the T/C under setting [5] was 111 % of control and 122 % of control and 86 % of control; the T/C under setting [6] was 107 % of control and 100 % of control; the T/C under setting [7] was 103 % of control and 117 % of control and 98 % of control; the T/C (dose: 2.5 mg/kg/injection, schedule: Q01DX010 (ip), vehicle: other) is 115 % of control. Moreover, the T/C reads like this: (dose: 4.0 mg/kg/injection, schedule: Q01DX Z (ip), vehicle: carboxymethylcellulose (CMC)) 94 % of control; (dose: 5.0 mg/kg/injection, schedule: Q01DX010 (ip), vehicle: other) 110 % of control and 94 % of control; (dose: 10.0 mg/kg/injection, schedule: Q01DX010 (ip), vehicle: other) 94 % of control.
In the case of `CCOC(N)=O`, the T/C runs as follows: (dose: 125.0 mg/kg/injection, schedule: Q01DX010 (ip), vehicle: saline) 110 % of control and 94 % of control; (dose: 250.0 mg/kg/injection, schedule: Q01DX010 (ip), vehicle: saline) 94 % of control; (dose: 500.0 mg/kg/injection, schedule: Q01DX010 (ip), vehicle: saline) 94 % of control.
As to `CO[C@@H]1[C@@H](OC2OC(C)C(OC3CC(C)(O)C(OC(=O)CC(C)C)C(C)O3)C(N(C)C)C2O)[C@@H](CC=O)C[C@@H](C)C(=O)/C=C/C2O[C@H]2C[C@@H](C)OC(=O)C[C@H]1OC(C)=O` (some centres undefined), the T/C reads like this: (dose: 37.5 mg/kg/injection, schedule: Q01DX010 (ip), vehicle: saline) 94 % of control; under setting [8], 112 % of control; (dose: 75.0 mg/kg/injection, schedule: Q01DX010 (ip), vehicle: saline) 88 % of control; under setting [9], 162 % of control; (dose: 150.0 mg/kg/injection, schedule: Q01DX010 (ip), vehicle: saline) 88 % of control; under setting [10], 168 % of control. The T/C (dose: 300.0 mg/kg/injection, schedule: Q01DX010 (ip), vehicle: saline) was 100 % of control.
Regarding `Cn1cnc([N+](=O)[O-])c1Sc1ncnc2nc[nH]c12`, the T/C was 104 % of control under setting [1]; 112 % of control under setting [2]; 114 % of control under setting [3]; 98 % of control (dose: 100.0 mg/kg/injection, schedule: Q01DX Z (ip), vehicle: carboxymethylcellulose (CMC)).
Consider `C[C@H]1C(=O)O[C@@H]2CCN3CC=C(COC(=O)[C@](C)(O)[C@@]1(C)O)[C@H]23`, for which the T/C reads like this: (dose: 0.99 mg/kg/injection, schedule: Q01DX Z (ip), vehicle: carboxymethylcellulose (CMC)) 97 % of control; (dose: 1.88 mg/kg/injection, schedule: Q01DX Z (ip), vehicle: carboxymethylcellulose (CMC)) 94 % of control; (dose: 3.13 mg/kg/injection, schedule: Q01DX010 (ip), vehicle: saline) 100 % of control; (dose: 3.75 mg/kg/injection, schedule: Q01DX Z (ip), vehicle: carboxymethylcellulose (CMC)) 90 % of control; (dose: 6.25 mg/kg/injection, schedule: Q01DX010 (ip), vehicle: saline) 100 % of control; (dose: 12.5 mg/kg/injection, schedule: Q01DX010 (ip), vehicle: saline) 121 % of control and 87 % of control. The T/C by setting is: under setting [11], 115 % of control and 100 % of control; under setting [8], 94 % of control.
As to `C[C@]12CCC(=O)C[C@H]1CC[C@@H]1[C@@H]2CC[C@@]2(C)[C@H]1CC[C@]2(C)O`, the T/C reads like this: (dose: 62.5 mg/kg/injection, schedule: Q01DX Z (sc), vehicle: steriod suspending solution) 97 % of control; (dose: 125.0 mg/kg/injection, schedule: Q01DX Z (sc), vehicle: steriod suspending solution) 98 % of control; (dose: 250.0 mg/kg/injection, schedule: Q01DX Z (sc), vehicle: steriod suspending solution) 109 % of control and 92 % of control; (dose: 500.0 mg/kg/injection, schedule: Q01DX Z (sc), vehicle: steriod suspending solution) 104 % of control and 100 % of control; (dose: 1000.0 mg/kg/injection, schedule: Q01DX Z (sc), vehicle: steriod suspending solution) 101 % of control.
As for `N#[N+]c1cnc([O-])[nH]c1=O`, the T/C (dose: 0.63 mg/kg/injection, schedule: Q01DX Z (ip), vehicle: carboxymethylcellulose (CMC)) was 112 % of control; the T/C (dose: 1.25 mg/kg/injection, schedule: Q01DX010 (ip), vehicle: saline) was 105 % of control; the T/C (dose: 1.25 mg/kg/injection, schedule: Q01DX Z (ip), vehicle: carboxymethylcellulose (CMC)) is 117 % of control; the T/C (dose: 2.5 mg/kg/injection, schedule: Q01DX010 (ip), vehicle: saline) is 104 % of control; the T/C (dose: 10.0 mg/kg/injection, schedule: Q01DX010 (ip), vehicle: saline) is 155 % of control.
For `O=c1[nH]c(=O)n(C2CC(O)C(CO)O2)cc1I` (centres undefined), the T/C reads like this: (dose: 63.0 mg/kg/injection, schedule: Q01DX Z (ip), vehicle: carboxymethylcellulose (CMC)) 104 % of control; (dose: 250.0 mg/kg/injection, schedule: Q01DX Z (ip), vehicle: carboxymethylcellulose (CMC)) 124 % of control; (dose: 1000.0 mg/kg/injection, schedule: Q01DX010 (ip), vehicle: saline) 116 % of control.
For `N[C@@H](Cc1ccc(N(CCCl)CCCl)cc1)C(=O)O`, the T/C (dose: 0.62 mg/kg/injection, schedule: Q01DX Z (ip), vehicle: saline) is 151 % of control; the T/C (dose: 1.25 mg/kg/injection, schedule: Q01DX Z (ip), vehicle: saline) was 181 % of control and 196 % of control; the T/C (dose: 2.5 mg/kg/injection, schedule: Q01DX Z (ip), vehicle: saline) is 172 % of control; the T/C (dose: 5.0 mg/kg/injection, schedule: Q01DX Z (ip), vehicle: saline) was 207 % of control; the T/C (dose: 10.0 mg/kg/injection, schedule: Q01DX Z (ip), vehicle: saline) is 108 % of control and 113 % of control.
`Nc1c(I)cc(I)cc1C(=O)O`: the T/C is, setting by setting: under setting [11], 100 % of control; under setting [8], 112 % of control and 100 % of control; under setting [9], 112 % of control and 100 % of control; under setting [10], 100 % of control; (dose: 400.0 mg/kg/injection, schedule: Q01DX010 (ip), vehicle: saline) 106 % of control.
With `Cn1cnc([N+](=O)[O-])c1Sc1nc(N)nc2nc[nH]c12`, the T/C reads like this: under setting [4], 107 % of control; under setting [5], 94 % of control; under setting [6], 113 % of control; under setting [7], 105 % of control.
